These results are taken from patent publication US11058635B1, “Oral administration of 5-FU in a gelling nanosuspension for targeted delivery to treat colorectal cancers” (King Abdulaziz University, priority 2020, dated 2021).

A short description of this data set: In vitro drug release, pH-profile dialysis bag method. The class given is physicochemical. To be noted: for overall pH-profile percentage release more than NAH-CRG-FU by: difference over 8 hrs. An excerpt: The ultimate goals were to develop a formula with in-soluble gel forming ability in the gastric media with good coherence, to form a sedimented gel with a density >1 in the stomach, to increase the gastric emptying rate and to avoid the gastric adverse effects and metabolism of FU by keeping a minimal gastric release or coating it. On other hand, the formula needed to dissolve and release the drug and gel in the simulated intestinal media, especially the colonic area. The main target was to design a system that was able to inhibit release of the drug in the stomach (i.e., release at a lower rate than the release rate in the intestinal-colonic area). Formulation was prepared according to Table 2 and the pattern of 5-FU release in the pH-profile differed from that of free 5-FU. After preparation of different formulations with manipulation of NA amounts (18, 36 and 72 mg/mL) and CRG types (CRGk and CRGL), the drug release optimization confirmed that the optimum formulation with respect to FU release curve and parameters was the NAH-CRG-FU shown in Table 2 and FIG. 6. […] The comparisons between the release patterns of the NAH-CRG-FU formulation and free drug were done using the simulated gastric release percentage (%)-first 2 hrs, simulated intestinal-colonic release percentage-subsequent 6 hrs (summation of the proximal, distal intestine and colon percentage simulated release patterns), mean dissolution time (MDT) of simulated pre-intestinal region (gastric) and simulated intestine-colonic area. Furthermore, mean dissolution times for 1st 2 hrs of pre-intestinal (Pre-intestinal MDT) and from the 2nd to 8th hr of the release profile (Intestinal-colonic MDT) were obtained by the following equation (Bani-Jaber and Abdullah 2020, Costa and Lobo 2001).
[formula] wherein (i) expressed the release sample numbers, (n) referred to the number of release times, (t) was the mid-point time in the interval (ti-1-ti), (ΔM) was the released amount of drug in the interval (ti-1-ti). The MDT larger values could indicate a slower drug release rate. The predicted rate of release equates to the rate of dissolution, and this rate has a direct effect on the number of daily oral doses and any adverse effects associated therewith.
5-FU was prepared in a formulation of the NAH-CGR-FU gelling nanosuspension, as described in the previous Examples. Data from Table 2 was used to prepare a nanosuspension volume of 20 mL. The dose was loaded into a dialysis bag having a cut-off of 12000-14000 Dalton (Spectra/Por® 4-Dialysis membrane, USA). The dialysis bag was placed into a beaker containing 300 mL of release media. The bags were exposed to 0.1N HCl to simulate gastric media having a pH 1.2 for 2 hr, followed by simulated proximal intestine media, which was a phosphate buffer with pH 6.5 for 2 hr. This was followed by media simulating the media of the distal area of the small intestine, which was a phosphate buffer at a pH 6.8 for 2 hr. Finally, the dialysis bags were transferred to a phosphate buffer media having a pH 8 to simulate the media of a descending colon for 2 hrs. The sequential exposure in the different pH media was used to construct a pH dissolution profile. The temperature was constantly controlled at 37±0.5° C. in a water bath shaker of 75 rpm speed. To maintain sink conditions, the dissolution media underwent total replacement with a fresh medium every hour. After drug release optimization of the NA amount and CRG type was determined, the optimum formulation in-soluble gel that was formed in the acidic media was evaluated for the onset of formation and the extent of sedimentation.

With `O=c1[nH]cc(F)c(=O)[nH]1` [Free 5-FU, 5-fluorouracil], where the note is “0.1N HCl pH 1.2, first 2 hr, 37 C, 75 rpm”, the “Gastric % Release” value amounted to 56.60 ± 0.0051%. In addition, for the setting “difference free 5-FU minus NAH-CRG-FU, first 2 hrs”, the “higher gastric percentage release than NAH-CRG-FU by” value stood at 31.55%. In addition, the “higher intestinal-colonic percentage release than NAH-CRG-FU by” value (difference free 5-FU minus NAH-CRG-FU, subsequent 6 hrs) turned out to be 30.68%. Also, the “overall pH-profile percentage release more than NAH-CRG-FU by” value was 62.23% (listed as 5-FU alone) and 62.2% (listed as 5-FU free). The “Pre-Intestinal MDT” value (mean dissolution time, 1st 2 hrs, pH 1.2, n = 3 ± SD) was determined as 0.23 ± 0.0011 h. The “Intestinal-Colonic MDT” value (mean dissolution time, 2nd to 8th hr, pH 6.5, 6.8, 8, n = 3 ± SD) is 1.75 ± 0.0051 h. Besides, under “pH-profile 1.2-8, 8 hrs”, the “released after 8 hrs of the pH-profile study” value is on record as 95.97%. For the same compound, the “Proximal Intestine % Release” value (phosphate buffer pH 6.5, 2 hr) is on record as 23.04 ± 0.0022%. Moreover, the “Distal Intestine % Release” value (phosphate buffer pH 6.8, 2 hr) was determined as 9.08 ± 0.0019%. In addition, the “Colon % Release” value (phosphate buffer pH 8, 2 hr) came out at 7.26 ± 0.0014%. The “Intestinal-Colonic % Release” value (subsequent 6 hrs, summation of proximal, distal intestine and colon) stood at 39.37 ± 0.0071%.
